{"source": "patent US20160375016A1", "about": "“METHODS FOR REDUCING ANXIETY AND IMPULSIVITY IN SUBJECTS INITIATING TREATMENT WITH SEROTONIN REUPTAKE INHIBITORS” (THE JOHNS HOPKINS UNIVERSITY, priority 2013, published 2016)", "key": {"C57BL/6 mice": {"system": "C57BL/6 mice", "assay": "Elevated plus maze after acute drug administration", "format": "in vivo, mouse", "conditions": "for anxiety in the elevated plus maze compared to Control mice: FIG. 1A legend, result in words; for time spent in the open arm of the elevated plus maze: reboxetine specificity experiment, FIG. 1D, saline 12.3±3.2, n=8 mice per group", "procedure": "Animals and Housing. 7-8 week old male C57BL/6 mice were obtained from the National Cancer Institute (Frederick, Md.) and housed in the Broadway Research Building Johns Hopkins animal facility. Housing and behavioral testing rooms were temperature controlled with a 12 h light/dark cycle, and all behavioral tests were conducted during the light cycle. Animal protocols were approved by the Johns Hopkins University School of Medicine Animal Care and Use Committee.\nDrug administration. […]\nElevated Plus Maze. Mice (n=10) were tested on the elevated plus maze in an isolated behavior suite. Mice were placed in the center of the maze and given 5 minutes to freely explore the maze. Time spent in open and closed arms of the maze were tracked using ANY-maze software (Stoelting, Wood Dale, Ill.).\nStatistical Analyses. Statistical analyses were completed using GraphPad Prism 5.0 (La Jolla, Calif.). Comparisons between groups in the animal studies were made with one-way ANOVA, and P values <0.05 were considered statistically significant. The Johns Hopkins Institute for Clinical and Translational Research Biostatistics Center provided statistical support."}, "[1]": {"conditions": "cited from earlier work"}, "[2]": {"conditions": "assumed from literature for one-compartment model"}}, "note": "Where two headings read alike, the source gives them in different places."}
{"compound": "COc1ccccc1N1CCN(CCN(C(=O)C2CCCCC2)c2ccccn2)CC1", "note": "[WAY-100635]", "values": [{"measurement": "anxiety in the elevated plus maze compared to Control mice", "setting": "C57BL/6 mice", "result": "no effect"}, {"measurement": "reversal of anxiety when co-administered with the SNRI reboxetine", "setting": "C57BL/6 mice; FIG. 1D legend", "result": "does not reverse anxiety"}, {"measurement": "reversal of anxiety when coadministered with the SSRI fluoxetine", "setting": "C57BL/6 mice; FIG. 1D legend", "result": "reverses anxiety"}, {"measurement": "time spent in the open arms of the elevated plus maze", "setting": "C57BL/6 mice; acute treatment 40 minutes before testing, fluoxetine 20 mg/kg, WAY-100635 0.3 mg/kg, FIG. 1A, Control 20.03±10.12", "result": "20.82 ± 15.18", "unit": "s"}]}
{"compound": "CN(C)CCCC1(c2ccc(F)cc2)OCc2cc(C#N)ccc21", "note": "(centres unmarked) [citalopram]", "values": [{"measurement": "Tmax", "setting": "[1]; [2]", "result": 4, "unit": "h"}, {"measurement": "V (apparent volume of distribution)", "setting": "[1]; [2]", "result": 840, "unit": "L"}, {"measurement": "t1/2", "setting": "[1]; [2]", "result": 35, "unit": "h"}]}
{"compound": "CNCCC(Oc1ccc(C(F)(F)F)cc1)c1ccccc1", "note": "(centres unmarked) [fluoxetine]", "values": [{"measurement": "anxiety in the elevated plus maze compared to Control mice", "setting": "C57BL/6 mice", "result": "more anxious"}, {"measurement": "less time in the open arms compared to Control mice", "setting": "C57BL/6 mice; acute fluoxetine 20 mg/kg vs saline", "result": 72, "unit": "%"}, {"measurement": "time spent in the open arm of the elevated plus maze", "setting": "C57BL/6 mice", "result": "4.0 ± 4.5", "unit": "s"}, {"measurement": "trough concentration at steady-state", "setting": "[1]; Prozac Full Prescribing Information", "result": "72 to 258", "unit": "ng/mL"}, {"measurement": "half-life (t1/2)", "setting": "[1]; single 40-mg dose of Prozac", "result": 48, "unit": "h"}, {"measurement": "peak drug concentration (Cmax)", "setting": "[1]; single 40-mg dose of Prozac", "result": 35, "unit": "ng/mL"}]}
{"compound": "COCCCC/C(=N\\OCCN)c1ccc(C(F)(F)F)cc1", "note": "[fluvoxamine]", "values": [{"measurement": "Cmax", "setting": "[1]; after a single 50 mg dose", "result": 30, "unit": "ng/mL"}, {"measurement": "Tmax", "setting": "[1]; after a single 50 mg dose", "result": 6, "unit": "h"}, {"measurement": "t1/2", "setting": "[1]; after a single 50 mg dose", "result": 19, "unit": "h"}]}
{"compound": "Fc1ccc([C@@H]2CCNC[C@H]2COc2ccc3c(c2)OCO3)cc1", "note": "[paroxetine]", "values": [{"measurement": "Cmax", "setting": "[1]; after a single 30 mg dose", "result": 17.6, "unit": "ng/mL"}, {"measurement": "Tmax", "setting": "[1]; after a single 30 mg dose", "result": 6.3, "unit": "h"}, {"measurement": "t1/2", "setting": "[1]; after a single 30 mg dose", "result": 16, "unit": "h"}]}
{"compound": "CCOc1ccccc1OC(c1ccccc1)C1CNCCO1", "note": "(centres unmarked) [reboxetine]", "values": [{"measurement": "time spent in the open arm of the elevated plus maze", "setting": "C57BL/6 mice", "result": "10.6 ± 10.8", "unit": "s"}]}
{"compound": "CN[C@H]1CC[C@@H](c2ccc(Cl)c(Cl)c2)c2ccccc21", "note": "[sertraline]", "values": [{"measurement": "Tmax", "setting": "[1]; [2]", "result": 6.5, "unit": "h"}, {"measurement": "V (apparent volume of distribution)", "setting": "[1]; [2]", "result": 1400, "unit": "L"}, {"measurement": "t1/2", "setting": "[1]; [2]", "result": 26, "unit": "h"}]}
{"compound": "COc1ccc(C(CN(C)C)C2(O)CCCCC2)cc1", "note": "(centres unmarked) [venlafaxine]", "values": [{"measurement": "Tmax", "setting": "[1]; [2]", "result": 8, "unit": "h"}, {"measurement": "V (apparent volume of distribution)", "setting": "[1]; [2]", "result": 426, "unit": "L"}, {"measurement": "t1/2", "setting": "[1]; [2]", "result": 16.9, "unit": "h"}]}
